Results as given in ChEMBL document CHEMBL1156785, “Discovery of 4-[(2S)-2-{[4-(4-chlorophenoxy)phenoxy]methyl}-1-pyrrolidinyl]butanoic acid (DG-051) as a novel leukotriene A4 hydrolase inhibitor of leukotriene B4 biosynthesis” (J Med Chem, 2010).
Values belong to the molecule of their own block, whether it stands above or below them.

Columns and labels:
[1] = target: T1, Leukotriene A-4 hydrolase (Homo sapiens, UniProt P09960)
T1 sequence (P09960 whole entry): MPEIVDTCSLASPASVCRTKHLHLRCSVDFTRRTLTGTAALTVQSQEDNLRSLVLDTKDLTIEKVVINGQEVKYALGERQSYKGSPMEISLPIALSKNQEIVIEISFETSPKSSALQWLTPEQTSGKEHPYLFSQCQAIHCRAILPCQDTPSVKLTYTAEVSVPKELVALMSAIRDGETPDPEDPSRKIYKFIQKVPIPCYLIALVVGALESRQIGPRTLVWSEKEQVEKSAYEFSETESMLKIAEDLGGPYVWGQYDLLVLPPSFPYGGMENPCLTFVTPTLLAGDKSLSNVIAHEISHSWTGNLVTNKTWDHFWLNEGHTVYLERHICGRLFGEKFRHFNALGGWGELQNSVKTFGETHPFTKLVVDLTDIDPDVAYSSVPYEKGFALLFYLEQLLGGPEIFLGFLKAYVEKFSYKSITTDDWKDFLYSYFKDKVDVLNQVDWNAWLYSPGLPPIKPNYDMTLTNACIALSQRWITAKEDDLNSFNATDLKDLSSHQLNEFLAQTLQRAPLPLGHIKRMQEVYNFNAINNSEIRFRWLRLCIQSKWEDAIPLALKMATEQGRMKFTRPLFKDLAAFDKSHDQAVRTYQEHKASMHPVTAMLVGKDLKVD
Description: Inhibition of human recombinant LTA4H hydrolysis assessed as inhibition of LTB4 formation by LC-MS/MS

[2] = Volume of distribution in mouse at 10 mg/kg, iv; assay type: ADME, organism-based; set-up: dose 10 mg/kg, route intravenous; conditions: in vivo
[3] = Oral bioavailability in mouse at 10 mg/kg; assay type: ADME, organism-based; conditions: in vivo
[4] = Metabolic stability in rat liver microsomes assessed as compound remaining after 30 mins; assay type: ADME, Microsome; conditions: read-out: Stability
[5] = target: T1, Leukotriene A-4 hydrolase; remark: listed apart in the source
Description: Inhibition of human LTA4H hydrolysis assessed as inhibition of Ca2+ ionophore-stimulated LTB4 formation in human whole blood by ELISA

[6] = Clearance in mouse at 10 mg/kg, iv; assay type: ADME, organism-based; set-up: dose 10 mg/kg, route intravenous; conditions: in vivo
[7] = Cmax in mouse at 10 mg/kg, po; assay type: ADME, organism-based; set-up: dose 10 mg/kg, route oral; conditions: in vivo
[8] = AUC (0 to infinity) in mouse at 10 mg/kg, po; assay type: ADME, organism-based; set-up: time infinity, dose 10 mg/kg, route oral; conditions: plasma
[9] = Half life in mouse at 10 mg/kg, po; assay type: ADME, organism-based; set-up: dose 10 mg/kg, route oral; conditions: in vivo
Rattus norvegicus = assay: AUC (0 to infinity) in Sprague-Dawley rat at 10 mg/kg, iv; assay type: ADME, organism-based, Plasma; set-up: time infinity, dose 10 mg/kg, route intravenous; conditions: in vivo
[10] = Cmax in Sprague-Dawley rat at 10 mg/kg, iv; assay type: ADME, organism-based; set-up: dose 10 mg/kg, route intravenous; conditions: in vivo
[11] = Half life in Sprague-Dawley rat at 10 mg/kg, po; assay type: ADME, organism-based; set-up: dose 10 mg/kg, route oral; conditions: in vivo
[12] = Volume of distribution in Sprague-Dawley rat at 10 mg/kg, iv; assay type: ADME, organism-based; set-up: dose 10 mg/kg, route intravenous; conditions: in vivo
Cytochrome P450 2D6 = Cytochrome P450 2D6 (Homo sapiens, UniProt P10635); assay: Inhibition of CYP2D6; assay type: ADME
[13] = Oral bioavailability in Sprague-Dawley rat at 10 mg/kg; assay type: ADME, organism-based; conditions: in vivo
[14] = Clearance in dog at 10 mg/kg, iv; assay type: ADME, organism-based, Canis lupus familiaris; set-up: dose 10 mg/kg, route intravenous; conditions: in vivo
CYP2C19 = CYP2C19 (Homo sapiens, UniProt P33261); assay: Inhibition of human CYP2C19 at 10 uM; assay type: ADME
[15] = Cmax in dog at 10 mg/kg, po; assay type: ADME, organism-based, Canis lupus familiaris; set-up: dose 10 mg/kg, route oral; conditions: in vivo
[16] = Volume of distribution in monkey at 10 mg/kg, iv; assay type: ADME, organism-based, Macaca mulatta; set-up: dose 10 mg/kg, route intravenous; conditions: rhesus monkey, in vivo
[17] = target: Xaa-Pro aminopeptidase 1 (Homo sapiens) (UniProt Q9NQW7); assay: Inhibition of APP1 at 10 uM
[18] = AUC (0 to infinity) in dog at 10 mg/kg, po; assay type: ADME, organism-based, Canis lupus familiaris; set-up: time infinity, dose 10 mg/kg, route oral; conditions: plasma
[19] = target: Endoplasmic reticulum aminopeptidase 2 (Homo sapiens) (UniProt Q6P179); assay: Inhibition of LRAP at 10 uM
[20] = Half life in dog at 10 mg/kg, po; assay type: ADME, organism-based, Canis lupus familiaris; set-up: dose 10 mg/kg, route oral; conditions: in vivo
[21] = Half life in monkey at 10 mg/kg, po; assay type: ADME, organism-based, Macaca mulatta; set-up: dose 10 mg/kg, route oral; conditions: rhesus monkey, in vivo
[22] = Cmax in monkey at 10 mg/kg, po; assay type: ADME, organism-based, Macaca mulatta; set-up: dose 10 mg/kg, route oral; conditions: rhesus monkey, in vivo
[23] = Aqueous solubility at pH 6.18; assay type: physicochemical; conditions: buffer
[24] = target: Aminopeptidase N (Homo sapiens) (UniProt P15144); assay: Inhibition of APN at 10 uM
[25] = AUC (0 to infinity) in Sprague-Dawley rat at 10 mg/kg, po; assay type: ADME, organism-based; set-up: time infinity, dose 10 mg/kg, route oral; conditions: plasma
[26] = target: Glutamyl aminopeptidase (Homo sapiens) (UniProt Q07075); assay: Inhibition of APA at 10 uM
CYP3A4 = CYP3A4 (Homo sapiens, UniProt P08684); assay: Inhibition of human CYP3A4 at 10 uM; assay type: ADME
[27] = Cmax in Sprague-Dawley rat at 10 mg/kg, po; assay type: ADME, organism-based; set-up: dose 10 mg/kg, route oral; conditions: in vivo
[28] = Clearance in monkey at 10 mg/kg, iv; assay type: ADME, organism-based, Macaca mulatta; set-up: dose 10 mg/kg, route intravenous; conditions: rhesus monkey, in vivo
CYP2C9 = CYP2C9 (Homo sapiens, UniProt P11712); assay: Inhibition of human CYP2C9 at 10 uM; assay type: ADME
[29] = Volume of distribution in dog at 10 mg/kg, iv; assay type: ADME, organism-based, Canis lupus familiaris; set-up: dose 10 mg/kg, route intravenous; conditions: in vivo
[30] = target: Endoplasmic reticulum aminopeptidase 1 (Homo sapiens) (UniProt Q9NZ08); assay: Inhibition of PILS at 10 uM
Rhesus monkey = assay: Oral bioavailability in monkey at 10 mg/kg; assay type: ADME, organism-based, Macaca mulatta; conditions: in vivo
[31] = AUC (0 to infinity) in monkey at 10 mg/kg, po; assay type: ADME, organism-based, Macaca mulatta; set-up: time infinity, dose 10 mg/kg, route oral; conditions: rhesus monkey, plasma
[32] = target: Voltage-gated inwardly rectifying potassium channel KCNH2 (Homo sapiens, UniProt Q12809); assay: Inhibition of human ERG channel
CYP1A2 = target: T2, CYP1A2 (Homo sapiens, UniProt P05177); assay: Inhibition of human CYP1A2 at 10 uM; assay type: ADME
T2 sequence (P05177 whole entry): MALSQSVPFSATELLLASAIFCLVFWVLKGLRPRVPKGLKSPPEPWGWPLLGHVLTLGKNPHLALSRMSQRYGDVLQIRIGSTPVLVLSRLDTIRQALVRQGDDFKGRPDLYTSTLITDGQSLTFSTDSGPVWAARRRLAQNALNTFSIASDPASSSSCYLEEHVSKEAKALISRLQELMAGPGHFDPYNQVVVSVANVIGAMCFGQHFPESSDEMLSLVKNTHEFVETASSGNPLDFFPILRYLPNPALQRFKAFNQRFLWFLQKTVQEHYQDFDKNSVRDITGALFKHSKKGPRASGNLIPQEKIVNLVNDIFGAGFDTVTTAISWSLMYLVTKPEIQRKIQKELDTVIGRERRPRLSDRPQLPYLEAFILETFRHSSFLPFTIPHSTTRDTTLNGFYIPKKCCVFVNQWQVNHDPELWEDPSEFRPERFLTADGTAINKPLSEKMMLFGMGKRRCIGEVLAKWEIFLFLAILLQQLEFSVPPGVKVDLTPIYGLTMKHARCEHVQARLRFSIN

[33] = Clearance in Sprague-Dawley rat at 10 mg/kg, iv; assay type: ADME, organism-based; set-up: dose 10 mg/kg, route intravenous; conditions: in vivo

Chain of CYP2C19 (P33261 whole entry): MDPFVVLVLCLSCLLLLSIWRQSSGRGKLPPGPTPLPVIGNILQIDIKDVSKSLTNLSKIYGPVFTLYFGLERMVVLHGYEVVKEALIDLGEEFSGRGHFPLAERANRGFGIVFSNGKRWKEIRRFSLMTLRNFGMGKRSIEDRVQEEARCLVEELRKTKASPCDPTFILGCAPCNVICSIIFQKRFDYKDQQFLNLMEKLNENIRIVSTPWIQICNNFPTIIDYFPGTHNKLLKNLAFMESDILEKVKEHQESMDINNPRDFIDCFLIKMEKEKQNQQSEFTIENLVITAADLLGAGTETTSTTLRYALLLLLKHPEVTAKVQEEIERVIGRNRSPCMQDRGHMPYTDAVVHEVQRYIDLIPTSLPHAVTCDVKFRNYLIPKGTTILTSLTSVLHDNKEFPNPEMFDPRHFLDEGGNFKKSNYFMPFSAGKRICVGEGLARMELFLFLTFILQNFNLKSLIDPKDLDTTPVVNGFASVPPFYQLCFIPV
Chain of CYP2C9 (P11712 whole entry): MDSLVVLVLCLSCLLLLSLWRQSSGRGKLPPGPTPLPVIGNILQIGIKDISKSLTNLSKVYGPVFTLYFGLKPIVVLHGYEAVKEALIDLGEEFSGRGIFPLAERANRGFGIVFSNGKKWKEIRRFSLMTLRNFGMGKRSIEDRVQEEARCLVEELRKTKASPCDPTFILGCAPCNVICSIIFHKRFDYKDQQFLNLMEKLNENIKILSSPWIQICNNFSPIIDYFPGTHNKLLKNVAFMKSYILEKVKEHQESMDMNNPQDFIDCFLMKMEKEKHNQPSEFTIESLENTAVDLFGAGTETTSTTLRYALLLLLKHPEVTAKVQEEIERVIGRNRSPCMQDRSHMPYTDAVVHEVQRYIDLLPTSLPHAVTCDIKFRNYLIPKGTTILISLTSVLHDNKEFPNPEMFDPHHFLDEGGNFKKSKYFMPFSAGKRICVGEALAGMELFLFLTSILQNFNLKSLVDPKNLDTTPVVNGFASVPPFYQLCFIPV
Chain of CYP3A4 (P08684 whole entry): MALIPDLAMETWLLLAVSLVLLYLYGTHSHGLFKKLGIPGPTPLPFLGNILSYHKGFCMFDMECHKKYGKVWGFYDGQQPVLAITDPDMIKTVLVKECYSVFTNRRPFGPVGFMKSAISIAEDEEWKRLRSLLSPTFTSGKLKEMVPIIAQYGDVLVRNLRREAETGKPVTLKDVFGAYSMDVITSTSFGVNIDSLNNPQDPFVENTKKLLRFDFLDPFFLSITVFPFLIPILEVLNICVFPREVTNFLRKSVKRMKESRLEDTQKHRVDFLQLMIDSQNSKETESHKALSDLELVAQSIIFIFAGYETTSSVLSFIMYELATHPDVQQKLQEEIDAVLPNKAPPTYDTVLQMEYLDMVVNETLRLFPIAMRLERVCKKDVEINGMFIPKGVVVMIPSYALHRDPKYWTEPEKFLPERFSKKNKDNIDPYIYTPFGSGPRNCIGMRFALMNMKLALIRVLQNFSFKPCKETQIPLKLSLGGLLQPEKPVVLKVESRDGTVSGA
Chain of Endoplasmic reticulum aminopeptidase 1 (Homo sapiens) (Q9NZ08 whole entry): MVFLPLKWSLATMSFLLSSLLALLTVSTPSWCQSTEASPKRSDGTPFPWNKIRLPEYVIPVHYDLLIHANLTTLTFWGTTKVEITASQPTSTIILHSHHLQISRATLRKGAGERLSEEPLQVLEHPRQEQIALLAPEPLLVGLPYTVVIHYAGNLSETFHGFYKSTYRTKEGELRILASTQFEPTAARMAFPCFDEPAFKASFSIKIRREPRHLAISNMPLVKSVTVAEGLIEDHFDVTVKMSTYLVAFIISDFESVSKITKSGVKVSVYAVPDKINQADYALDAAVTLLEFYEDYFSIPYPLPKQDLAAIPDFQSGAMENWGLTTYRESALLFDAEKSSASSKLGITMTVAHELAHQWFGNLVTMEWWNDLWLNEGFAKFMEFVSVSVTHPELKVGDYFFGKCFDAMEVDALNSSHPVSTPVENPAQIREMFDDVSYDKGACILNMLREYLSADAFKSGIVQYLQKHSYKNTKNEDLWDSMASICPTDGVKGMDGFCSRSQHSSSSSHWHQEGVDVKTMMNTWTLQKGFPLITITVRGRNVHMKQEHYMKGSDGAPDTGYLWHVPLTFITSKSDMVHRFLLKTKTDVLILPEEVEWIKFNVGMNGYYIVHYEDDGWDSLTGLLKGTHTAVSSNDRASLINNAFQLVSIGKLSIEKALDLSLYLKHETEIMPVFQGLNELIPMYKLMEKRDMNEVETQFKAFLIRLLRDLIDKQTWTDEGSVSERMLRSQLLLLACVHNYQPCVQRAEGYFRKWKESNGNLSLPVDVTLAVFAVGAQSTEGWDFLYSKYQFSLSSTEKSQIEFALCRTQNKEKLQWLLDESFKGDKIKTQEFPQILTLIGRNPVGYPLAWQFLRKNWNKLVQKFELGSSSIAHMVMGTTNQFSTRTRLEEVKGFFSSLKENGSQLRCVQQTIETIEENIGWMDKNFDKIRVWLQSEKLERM
Chain of Cytochrome P450 2D6 (P10635 whole entry): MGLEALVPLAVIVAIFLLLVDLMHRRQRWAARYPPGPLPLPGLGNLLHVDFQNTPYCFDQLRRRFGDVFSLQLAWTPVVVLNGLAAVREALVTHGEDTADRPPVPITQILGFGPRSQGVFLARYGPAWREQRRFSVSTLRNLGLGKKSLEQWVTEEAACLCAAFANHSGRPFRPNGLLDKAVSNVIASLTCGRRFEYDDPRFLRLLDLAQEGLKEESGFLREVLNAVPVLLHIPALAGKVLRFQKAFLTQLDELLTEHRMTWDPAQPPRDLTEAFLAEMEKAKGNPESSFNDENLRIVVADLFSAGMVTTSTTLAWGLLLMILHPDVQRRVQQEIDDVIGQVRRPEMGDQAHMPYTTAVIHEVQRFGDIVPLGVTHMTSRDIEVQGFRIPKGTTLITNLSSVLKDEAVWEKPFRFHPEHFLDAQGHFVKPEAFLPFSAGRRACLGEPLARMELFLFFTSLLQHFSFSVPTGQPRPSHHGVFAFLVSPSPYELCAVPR
Chain of Xaa-Pro aminopeptidase 1 (Homo sapiens) (Q9NQW7 whole entry, looked up): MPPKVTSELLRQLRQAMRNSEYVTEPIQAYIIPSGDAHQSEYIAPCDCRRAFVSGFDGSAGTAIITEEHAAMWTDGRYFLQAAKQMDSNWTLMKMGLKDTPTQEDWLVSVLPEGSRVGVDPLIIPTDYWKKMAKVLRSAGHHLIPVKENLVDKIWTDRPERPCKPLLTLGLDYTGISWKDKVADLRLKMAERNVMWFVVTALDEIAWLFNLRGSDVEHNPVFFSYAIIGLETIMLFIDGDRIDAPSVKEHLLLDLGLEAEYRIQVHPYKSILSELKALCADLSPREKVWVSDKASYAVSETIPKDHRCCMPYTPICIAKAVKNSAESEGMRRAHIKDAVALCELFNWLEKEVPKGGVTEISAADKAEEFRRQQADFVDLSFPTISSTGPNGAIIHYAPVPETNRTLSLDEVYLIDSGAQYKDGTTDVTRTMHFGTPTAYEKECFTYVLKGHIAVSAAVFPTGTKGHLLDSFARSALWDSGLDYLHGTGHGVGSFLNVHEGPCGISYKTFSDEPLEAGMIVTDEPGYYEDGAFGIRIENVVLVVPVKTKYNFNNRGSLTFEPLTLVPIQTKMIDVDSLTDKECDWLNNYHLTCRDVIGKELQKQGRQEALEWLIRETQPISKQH
Chain of Voltage-gated inwardly rectifying potassium channel KCNH2 (Q12809 whole entry): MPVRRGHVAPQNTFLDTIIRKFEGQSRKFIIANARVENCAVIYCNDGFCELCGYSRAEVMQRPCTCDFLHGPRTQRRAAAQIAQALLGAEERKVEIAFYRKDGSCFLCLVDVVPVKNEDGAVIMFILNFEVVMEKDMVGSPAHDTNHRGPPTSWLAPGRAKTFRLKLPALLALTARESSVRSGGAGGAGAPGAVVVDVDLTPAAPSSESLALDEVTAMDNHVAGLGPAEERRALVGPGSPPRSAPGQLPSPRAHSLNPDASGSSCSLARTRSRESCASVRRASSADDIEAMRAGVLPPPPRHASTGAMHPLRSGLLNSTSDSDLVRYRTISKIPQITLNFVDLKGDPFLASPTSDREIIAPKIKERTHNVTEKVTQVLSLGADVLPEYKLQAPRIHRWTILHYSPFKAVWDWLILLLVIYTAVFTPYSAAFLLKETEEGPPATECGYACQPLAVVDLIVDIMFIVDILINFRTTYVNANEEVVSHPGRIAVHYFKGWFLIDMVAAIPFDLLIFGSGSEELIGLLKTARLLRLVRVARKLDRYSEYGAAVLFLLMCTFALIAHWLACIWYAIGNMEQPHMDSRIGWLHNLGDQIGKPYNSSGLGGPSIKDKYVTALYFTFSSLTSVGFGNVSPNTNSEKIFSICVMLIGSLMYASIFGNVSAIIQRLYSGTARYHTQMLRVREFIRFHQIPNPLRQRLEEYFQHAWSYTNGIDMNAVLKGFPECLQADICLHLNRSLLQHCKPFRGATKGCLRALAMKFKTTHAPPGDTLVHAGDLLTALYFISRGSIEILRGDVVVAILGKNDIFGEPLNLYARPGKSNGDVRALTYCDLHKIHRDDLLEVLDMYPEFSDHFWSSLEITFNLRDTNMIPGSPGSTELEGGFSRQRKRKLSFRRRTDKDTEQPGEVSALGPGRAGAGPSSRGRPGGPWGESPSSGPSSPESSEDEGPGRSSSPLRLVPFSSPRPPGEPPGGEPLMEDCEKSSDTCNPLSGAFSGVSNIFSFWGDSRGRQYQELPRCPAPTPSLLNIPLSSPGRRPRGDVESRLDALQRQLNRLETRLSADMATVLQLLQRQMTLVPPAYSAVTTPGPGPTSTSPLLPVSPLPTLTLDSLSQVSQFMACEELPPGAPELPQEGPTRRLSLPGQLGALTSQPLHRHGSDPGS

SMILES: Ic1ccc(Oc2ccc(N3CCNCC3)cc2)cc1
IC50 [1]: 340 nM

IC50 [1]: 30 nM
Vd [2]: 6.32 L/kg
bioavailability [3]: 85%
remaining at 0.5 h [4]: 86.6%
IC50 [5]: 533 nM
clearance [6]: 61 mL/min/kg
Cmax [7]: 1.02 µM
AUC(0-inf) [8]: 2360 ng·h/mL
half-life [9]: 3.59 h
SMILES: Clc1ccc(Oc2ccc(OC[C@H]3CCCN3)cc2)cc1

SMILES: c1ccc(Cc2ccc(OCCc3ccncc3)cc2)cc1
IC50 [1]: 8700 nM

SMILES: c1ccc(Cc2ccc(OC[C@H]3CCCN3)cc2)cc1
AUC (Rattus norvegicus): 471 ng·h/mL
remaining at 0.5 h [4]: 10.5%
Cmax [10]: 1.46 µM
half-life [11]: 0.67 h
Vd [12]: 6.12 L/kg

inhibition (INH) (Cytochrome P450 2D6): < 50%
bioavailability [13]: 87%
clearance [14]: 7.6 mL/min/kg
inhibition at 10 µM (CYP2C19): < 50%
Cmax [15]: 19.3 µM
Vd [16]: 2.07 L/kg
inhibition [17]: > 50%
AUC(0-inf) [18]: 56000 ng·h/mL
inhibition [19]: > 50%
half-life [20]: 4.02 h
half-life [21]: 5.54 h
Cmax [22]: 18.9 µM
solubility [23]: > 30 mg/mL
inhibition [24]: > 50%
remaining at 0.5 h [4]: 95.2%
AUC(0-inf) [25]: 13000 ng·h/mL
inhibition [26]: > 50%
inhibition at 10 µM (CYP3A4): < 50%
Cmax [27]: 4.8 µM
clearance [28]: 6 mL/min/kg
inhibition at 10 µM (CYP2C9): < 50%
half-life [11]: 2.57 h
Vd [29]: 1.56 L/kg
inhibition [30]: > 50%
F (Rhesus monkey): 186%
Vd [12]: 2.35 L/kg
AUC(0-inf) [31]: 52400 ng·h/mL
inhibition at 10 µM (CYP1A2): < 50%
clearance [33]: 11 mL/min/kg
SMILES: O=C(O)CCCN1CCC[C@H]1COc1ccc(Oc2ccc(Cl)cc2)cc1
inhibition (INH) [32]: > 50%
